Assay results reported in patent US20240018207A1, “INTERFERON TAU FC-FUSION PROTEINS AND METHODS FOR TREATING CORONAVIRUS INFECTIONS” (Southlake Pharmaceuticals, Inc., priority 2020, published 2024).

Tests used:
[1] = in vitro; details: human
[2] = system: hCoV-229E; assay: hCoV-229E CPE assay in MRC5 cells; type: cell-based
Method: The method of this CPE assay is as follows: In 96-well plates, MRC5 cells were seeded at an appropriate density and cultured at 37° C. and 5% CO2 overnight. […] Then medium in each well was replenished with medium containing serially diluted samples and virus. […] Cytotoxicity of the compounds was assessed under the same conditions, but without virus infection, in parallel. Cell viability was measured by CellTiter Glo following the manufacturer's manual. IC50 and CC50 values were calculated with GraphPad Prism software.

[3] = system: SARS CoV-2 (USA_WA1/2020); assay: microbe, parasite or virus in culture; type: cell-based; details: Severe acute respiratory syndrome coronavirus 2, Vero C1008; SARS-CoV-2 CPE assay, reference compounds

CCC(CC)COC(=O)[C@H](C)N[P@](=O)(OC[C@H]1O[C@@](C#N)(c2ccc3c(N)ncnn23)[C@H](O)[C@@H]1O)Oc1ccccc1 [Remdesivir]
CC50 [1]: 26.7 µM
Selectivity Index (CC50/IC50) (Based upon nM) ([2]; HCoV-229E CPE assay): 1508.76
IC50 ([2]; Human coronavirus 229E, MRC5, 72 h, read-out: Antiviral IC50): 0.0177 µM
IC50 [3]: 3.9 µM
